PubChem BioAssay AID216 (DTP/NCI, 2004)
Values joined by “and” are separate entries in the source; they are usually repeats but may differ in a detail not shown here. Identical values can stand only once. Toxic doses and inconclusive results are not listed.

Tested on: BDF1 mice, P288 leukemia ip, survival T/C
Test: NCI In Vivo Anticancer Drug Screen. Data for tumor model P288 Lymphocytic Leukemia (intraperitoneal) in B6D2F1 (BDF1) mice
Conditions: endpoint: survival time, mean or median, higher = longer survival
Protocol: The antitumor activity of compounds was measured in mice bearing transplantable tumors. Survival or tumor size were measured and the results are expressed as the measurement made in the treated group (T) divided by the measurement made in the vehicle treated control group (C). The tumor model used in this assay is P288 Lymphocytic Leukemia (intraperitoneal) in B6D2F1 (BDF1) mice

[1] = dose: 50.0 mg/kg/injection, schedule: Q01DX Z (sc), vehicle: steriod suspending solution
[2] = dose: 100.0 mg/kg/injection, schedule: Q01DX Z (sc), vehicle: steriod suspending solution
[3] = dose: 200.0 mg/kg/injection, schedule: Q01DX Z (sc), vehicle: steriod suspending solution
[4] = dose: 400.0 mg/kg/injection, schedule: Q01DX Z (sc), vehicle: steriod suspending solution
[5] = dose: 3.1 mg/kg/injection, schedule: Q01DX Z (ip), vehicle: carboxymethylcellulose (CMC)
[6] = dose: 1.0 mg/kg/injection, schedule: Q01DX010 (ip), vehicle: saline
[7] = dose: 2.0 mg/kg/injection, schedule: Q01DX010 (ip), vehicle: saline
[8] = dose: 4.0 mg/kg/injection, schedule: Q01DX010 (ip), vehicle: saline
[9] = dose: 0.5 mg/kg/injection, schedule: Q01DX010 (ip), vehicle: saline
[10] = dose: 125.0 micrograms/kg/injection, schedule: Q01DX010 (ip), vehicle: saline
[11] = dose: 500.0 micrograms/kg/injection, schedule: Q01DX010 (ip), vehicle: saline
[12] = dose: 1000.0 micrograms/kg/injection, schedule: Q01DX010 (ip), vehicle: saline

Question: How did the T/C (dose: 25.0 mg/kg/injection, schedule: Q01DX Z (sc), vehicle: steriod suspending solution) turn out when `CC(=O)[C@H]1CC[C@H]2[C@@H]3C[C@H](C)C4=CC(=O)CC[C@]4(C)[C@H]3C(=O)C[C@]12C` was run?
Answer: 100 % of control

Question: What about the T/C [1] of the same compound?
Answer: 108 % of control

Question: What about the T/C [2] of the same compound?
Answer: 114 % of control

Question: And the T/C [3]?
Answer: 104 % of control and 105 % of control

Question: And the T/C [4]?
Answer: 110 % of control

Question: What about the T/C (dose: 800.0 mg/kg/injection, schedule: Q01DX Z (sc), vehicle: steriod suspending solution) of the same compound?
Answer: 100 % of control

Question: For `CC[C@H](c1ccc(O)cc1)[C@@H](CC)c1ccc(O)cc1`, which T/C (dose: 8.0 mg/kg/injection, schedule: Q01DX Z (sc), vehicle: steriod suspending solution) is on record?
Answer: 90 % of control

Question: And the T/C (dose: 16.0 mg/kg/injection, schedule: Q01DX Z (sc), vehicle: steriod suspending solution)?
Answer: 93 % of control

Question: And the T/C (dose: 31.0 mg/kg/injection, schedule: Q01DX Z (sc), vehicle: steriod suspending solution)?
Answer: 97 % of control

Question: What about the T/C (dose: 62.5 mg/kg/injection, schedule: Q01DX Z (sc), vehicle: steriod suspending solution) of the same compound?
Answer: 88 % of control and 98 % of control

Question: What about the T/C (dose: 125.0 mg/kg/injection, schedule: Q01DX Z (sc), vehicle: steriod suspending solution) of the same compound?
Answer: 90 % of control

Question: Which results are given for `N=[N+]=CC(=O)OCC(N)C(=O)O` (stereo not drawn)?
Answer: T/C (dose: 3.13 mg/kg/injection, schedule: Q01DX010 (ip), vehicle: saline): 94 % of control; T/C (dose: 6.25 mg/kg/injection, schedule: Q01DX010 (ip), vehicle: saline): 105 % of control; T/C (dose: 12.5 mg/kg/injection, schedule: Q01DX010 (ip), vehicle: saline): 100 % of control

Question: What does the source list for `CSc1ncnc2c1ncn2C1OC(CO)C(O)C1O` (stereo not drawn)?
Answer: T/C [5]: 101 % of control; T/C (dose: 6.3 mg/kg/injection, schedule: Q01DX Z (ip), vehicle: carboxymethylcellulose (CMC)): 124 % of control; T/C (dose: 12.5 mg/kg/injection, schedule: Q01DX Z (ip), vehicle: carboxymethylcellulose (CMC)): 118 % of control

Question: With `C[C@]12CCC(=O)C=C1CC[C@H]1[C@@H]3CC[C@](O)(C(=O)CO)[C@@]3(C)C[C@H](O)[C@@]12F` as the compound, how does the T/C (dose: 0.45 mg/kg/injection, schedule: Q01DX Z (sc), vehicle: steriod suspending solution) read?
Answer: 97 % of control

Question: And the T/C (dose: 0.9 mg/kg/injection, schedule: Q01DX Z (sc), vehicle: steriod suspending solution)?
Answer: 98 % of control

Question: And the T/C (dose: 1.8 mg/kg/injection, schedule: Q01DX Z (sc), vehicle: steriod suspending solution)?
Answer: 110 % of control and 97 % of control

Question: And the T/C (dose: 3.75 mg/kg/injection, schedule: Q01DX Z (sc), vehicle: steriod suspending solution)?
Answer: 106 % of control

Question: What about the T/C (dose: 7.5 mg/kg/injection, schedule: Q01DX Z (sc), vehicle: steriod suspending solution) of the same compound?
Answer: 108 % of control

Question: And the T/C (dose: 15.0 mg/kg/injection, schedule: Q01DX Z (sc), vehicle: steriod suspending solution)?
Answer: 106 % of control

Question: And the T/C (dose: 30.0 mg/kg/injection, schedule: Q01DX Z (sc), vehicle: steriod suspending solution)?
Answer: 108 % of control

Question: What about the T/C (dose: 60.0 mg/kg/injection, schedule: Q01DX Z (sc), vehicle: steriod suspending solution) of the same compound?
Answer: 102 % of control

Question: And the T/C (dose: 120.0 mg/kg/injection, schedule: Q01DX Z (sc), vehicle: steriod suspending solution)?
Answer: 105 % of control

Question: With `Cn1c(N)nc2nc[nH]c2c1=S` as the compound, how does the T/C [5] read?
Answer: 90 % of control

Question: And the T/C (dose: 10.0 mg/kg/injection, schedule: Q01DX010 (ip), vehicle: saline)?
Answer: 100 % of control

Question: What about the T/C (dose: 20.0 mg/kg/injection, schedule: Q01DX010 (ip), vehicle: saline) of the same compound?
Answer: 100 % of control

Question: And the T/C (dose: 40.0 mg/kg/injection, schedule: Q01DX010 (ip), vehicle: saline)?
Answer: 100 % of control

Question: What about the T/C (dose: 80.0 mg/kg/injection, schedule: Q01DX010 (ip), vehicle: saline) of the same compound?
Answer: 106 % of control

Question: `O=c1cn[nH]c(=O)[nH]1` was tested. Which T/C (dose: 5.0 mg/kg/injection, schedule: Q01DX Z (ip), vehicle: carboxymethylcellulose (CMC)) did it give?
Answer: 113 % of control

Question: What about the T/C (dose: 10.0 mg/kg/injection, schedule: Q01DX Z (ip), vehicle: carboxymethylcellulose (CMC)) of the same compound?
Answer: 101 % of control

Question: What about the T/C (dose: 20.0 mg/kg/injection, schedule: Q01DX Z (ip), vehicle: carboxymethylcellulose (CMC)) of the same compound?
Answer: 113 % of control

Question: What about the T/C (dose: 125.0 mg/kg/injection, schedule: Q01DX Z (ip), vehicle: carboxymethylcellulose (CMC)) of the same compound?
Answer: 104 % of control

Question: And the T/C (dose: 250.0 mg/kg/injection, schedule: Q01DX Z (ip), vehicle: carboxymethylcellulose (CMC))?
Answer: 108 % of control and 93 % of control

Question: And the T/C (dose: 500.0 mg/kg/injection, schedule: Q01DX Z (ip), vehicle: carboxymethylcellulose (CMC))?
Answer: 106 % of control

Question: What about the T/C (dose: 1000.0 mg/kg/injection, schedule: Q01DX Z (ip), vehicle: carboxymethylcellulose (CMC)) of the same compound?
Answer: 118 % of control

Question: How did the T/C (dose: 125.0 mg/kg/injection, schedule: Q01DX010 (ip), vehicle: saline) turn out when `CCOC(N)=O` was run?
Answer: 110 % of control and 94 % of control

Question: What about the T/C (dose: 250.0 mg/kg/injection, schedule: Q01DX010 (ip), vehicle: saline) of the same compound?
Answer: 94 % of control

Question: What about the T/C (dose: 500.0 mg/kg/injection, schedule: Q01DX010 (ip), vehicle: saline) of the same compound?
Answer: 94 % of control

Question: For `Nc1nc(=S)c2ncn(C3OC(CO)C(O)C3O)c2[nH]1` (stereo not drawn), which T/C [6] is on record?
Answer: 105 % of control

Question: What about the T/C [7] of the same compound?
Answer: 115 % of control

Question: What about the T/C [8] of the same compound?
Answer: 118 % of control and 120 % of control

Question: And the T/C (dose: 8.0 mg/kg/injection, schedule: Q01DX010 (ip), vehicle: saline)?
Answer: 112 % of control and 95 % of control

Question: And the T/C (dose: 16.0 mg/kg/injection, schedule: Q01DX010 (ip), vehicle: saline)?
Answer: 106 % of control

Question: And the T/C (dose: 5.0 micrograms/kg/injection, schedule: Q01DX Z (ip), vehicle: carboxymethylcellulose (CMC))?
Answer: 105 % of control

Question: What about the T/C (dose: 10.0 micrograms/kg/injection, schedule: Q01DX Z (ip), vehicle: carboxymethylcellulose (CMC)) of the same compound?
Answer: 96 % of control

Question: What about the T/C (dose: 20.0 micrograms/kg/injection, schedule: Q01DX Z (ip), vehicle: carboxymethylcellulose (CMC)) of the same compound?
Answer: 94 % of control

Question: Which T/C [9] does the source give for `CS(=O)(=O)OCCN(CCOS(C)(=O)=O)c1ccc(N=O)cc1` here?
Answer: 121 % of control

Question: What about the T/C [7] of the same compound?
Answer: 90 % of control and 94 % of control

Question: `COc1ccc2c(c1OC)C(=O)O[C@@H]2[C@H]1c2c(cc3c(c2OC)OCO3)CCN1C` was tested. Which T/C (dose: 3.9 mg/kg/injection, schedule: Q01DX010 (ip), vehicle: saline) did it give?
Answer: 112 % of control

Question: What about the T/C (dose: 7.8 mg/kg/injection, schedule: Q01DX010 (ip), vehicle: saline) of the same compound?
Answer: 112 % of control

Question: What about the T/C (dose: 31.3 mg/kg/injection, schedule: Q01DX010 (ip), vehicle: saline) of the same compound?
Answer: 106 % of control

Question: `Nc1nc(F)nc2c1ncn2C1OC(CO)C(O)C1O` (stereo not drawn) was tested. Which T/C [9] did it give?
Answer: 111 % of control

Question: And the T/C [6]?
Answer: 100 % of control

Question: What about the T/C [7] of the same compound?
Answer: 88 % of control

Question: What about the T/C [8] of the same compound?
Answer: 88 % of control

Question: And the T/C [10]?
Answer: 88 % of control

Question: And the T/C [11]?
Answer: 111 % of control

Question: What about the T/C [12] of the same compound?
Answer: 116 % of control

Question: Which T/C (dose: 12.5 mg/kg/injection, schedule: Q01DX010 (sc), vehicle: steriod suspending solution) does the source give for `C[C@]12C=CC(=O)C=C1CC[C@@H]1[C@@H]2C(=O)C[C@@]2(C)[C@H]1CC[C@]2(O)C(=O)CO` here?
Answer: 105 % of control

Question: And the T/C (dose: 25.0 mg/kg/injection, schedule: Q01DX010 (sc), vehicle: steriod suspending solution)?
Answer: 103 % of control

Question: What about the T/C (dose: 50.0 mg/kg/injection, schedule: Q01DX010 (sc), vehicle: steriod suspending solution) of the same compound?
Answer: 111 % of control and 87 % of control

Question: What about the T/C [1] of the same compound?
Answer: 102 % of control and 100 % of control

Question: What about the T/C (dose: 100.0 mg/kg/injection, schedule: Q01DX010 (sc), vehicle: steriod suspending solution) of the same compound?
Answer: 100 % of control

Question: And the T/C [2]?
Answer: 102 % of control and 111 % of control

Question: And the T/C (dose: 200.0 mg/kg/injection, schedule: Q01DX010 (sc), vehicle: steriod suspending solution)?
Answer: 97 % of control

Question: And the T/C [3]?
Answer: 90 % of control and 100 % of control

Question: What about the T/C [4] of the same compound?
Answer: 94 % of control

Question: For `CC(=O)NC1=C(N2CC2)C(=O)C(NC(C)=O)=C(N2CC2)C1=O`, which T/C (dose: 0.25 mg/kg/injection, schedule: Q01DX010 (ip), vehicle: saline) is on record?
Answer: 105 % of control

Question: And the T/C [9]?
Answer: 166 % of control

Question: What about the T/C [6] of the same compound?
Answer: 222 % of control

Question: What about the T/C [7] of the same compound?
Answer: 111 % of control

Question: And the T/C [10]?
Answer: 105 % of control

Question: What about the T/C (dose: 250.0 micrograms/kg/injection, schedule: Q01DX010 (ip), vehicle: saline) of the same compound?
Answer: 100 % of control

Question: And the T/C [11]?
Answer: 100 % of control

Question: What about the T/C [12] of the same compound?
Answer: 122 % of control
